# Reference: US11358969B2, “Indole AHR inhibitors and uses thereof” (Ikena Oncology, Inc., priority 2017, dated 2022)
# Target: T1, AHR (UniProt P35869)
# T1 construct: IC50
# T1 sequence (P35869 1-848): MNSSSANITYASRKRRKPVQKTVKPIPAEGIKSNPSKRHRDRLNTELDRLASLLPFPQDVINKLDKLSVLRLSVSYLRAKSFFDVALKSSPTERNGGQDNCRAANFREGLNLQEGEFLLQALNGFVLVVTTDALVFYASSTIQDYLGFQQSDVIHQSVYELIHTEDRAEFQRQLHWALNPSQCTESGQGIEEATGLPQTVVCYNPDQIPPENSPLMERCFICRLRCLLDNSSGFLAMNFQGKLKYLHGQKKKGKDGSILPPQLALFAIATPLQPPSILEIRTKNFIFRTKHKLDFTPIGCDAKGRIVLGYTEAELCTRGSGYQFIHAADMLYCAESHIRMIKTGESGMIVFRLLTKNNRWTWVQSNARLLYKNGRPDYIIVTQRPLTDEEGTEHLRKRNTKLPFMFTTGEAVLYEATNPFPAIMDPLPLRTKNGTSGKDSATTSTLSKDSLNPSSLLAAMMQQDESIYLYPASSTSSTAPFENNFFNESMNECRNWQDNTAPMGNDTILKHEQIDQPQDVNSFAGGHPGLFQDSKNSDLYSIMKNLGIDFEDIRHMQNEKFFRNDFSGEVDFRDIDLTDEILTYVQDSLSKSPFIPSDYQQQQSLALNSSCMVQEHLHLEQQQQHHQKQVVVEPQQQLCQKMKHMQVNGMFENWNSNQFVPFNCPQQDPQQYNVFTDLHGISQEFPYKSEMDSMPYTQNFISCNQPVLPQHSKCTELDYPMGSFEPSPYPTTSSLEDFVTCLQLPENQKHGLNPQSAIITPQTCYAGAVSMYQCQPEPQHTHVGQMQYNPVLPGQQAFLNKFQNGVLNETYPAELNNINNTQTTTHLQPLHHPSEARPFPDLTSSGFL
# Experiment: DRE-Luciferase Reporter Assay (Alternate Method) (Example 1B)
# Format: cell-based, murine or human
# Conditions: cell line and AHR activating ligand not specified
# Description: AHR binds to Dioxin Responsive Elements (DRE) upstream of genes that it activates. One measure of AHR activity is activation of a reporter gene, such as luciferase, downstream of one or multiple DRE elements. Luciferase activity will reflect activation and inhibition of AHR in the cells expressing his reporter.
# Murine Hepa1-6 or Hepa-1c1c7 or other murine cell line with a DRE-luciferase reporter either stably or transiently transfected were plated in media in plates (96-well, 384-well or other plates) and incubated overnight at 37° C. in a CO2 incubator or compound and agonist were added at the time of plating. Likewise, human HepG2 or other human cell line with a DRE-luciferase reporter either stably or transiently transfected were plated in media in plates (96-well, 384-well or other plates) and incubated overnight at 37° C. in a CO2 incubator or compound and agonist were added at the time of plating.
# At the time that cells are plated or following incubation overnight, an AHR activating ligand, such as TCDD, kynurenine, ITE (2-(1H-indole-3-ylcarbonyl)-4-thiazolecarboxylic methyl ester), VAF347, BNF (beta-naphthoflavone), FICZ (6-formylindolo(3,2-b) carbazole or other AHR ligands, was added with or without AHR antagonist.
# Cells were incubated for 4, 15 or 24 hours or another time point and then lysed for determination of luciferase activity as a read-out of the AHR activation or inhibition. Luciferase was measured with a commercial kit such as the Promega Luciferase kit or any kit or reagents that provide the luciferin substrate for measuring luciferase activity. The level of luciferase with only activating ligand added was the maximum signal while the luciferase with no ligand was the minimum signal. IC50 values were determined as the concentration which inhibits half of the luciferase activity.
row,IC50,SMILES
1,> 1500 nM,"CC(C)c1cnn2c(N[C@H]3CCc4cn[nH]c4C3)cc(-c3cncc(F)c3)nc12 (single isomer, unassigned) [I-32a]"
2,> 1500 nM,"CC(C)c1cnn2c(N[C@H]3Cc4ccc(O)cc4C3)cc(-c3cncc(C#N)c3)nc12 (single isomer, unassigned) [I-37a]"
3,> 1500 nM,"CC(C)c1cnn2c(N[C@H]3CCc4[nH]ncc4C3)cc(-c3cncc(F)c3)nc12 (single isomer, unassigned) [I-42a]"
4,> 1500 nM,"CC(C)c1cnn2c(NC3CCc4cc(O)ccc4C3)cc(-c3cncc(F)c3)nc12 (stereo in doubt) [I-82b, (2R)-2-[[5-(5-fluoro-3-pyridyl)-3-isopropyl-pyrazolo[1,5-a]pyrimidin-7-yl]amino]tetralin-6-ol]"
5,1000 to 1500 nM,"CC(C)c1cnn2c(NC3Cc4[nH]c5ccccc5c4C3)nc(-c3cncc(F)c3)nc12 (stereo in doubt) [I-263a, (2S)—N-[2-(5-Fluoro-3-pyridyl)-8-isopropyl-pyrazolo[1,5-a][1,3,5]triazin-4-yl]-1,2,3,4-tetrahydrocyclopenta[b]indol-2-amine]"
6,> 1500 nM,"CC(C)n1cnc2c(NCCc3c[nH]c4ccncc34)nc(-c3cncc(F)c3)nc21 [I-8, 2-(5-Fluoro-3-pyridyl)-9-isopropyl-N-[2-(1H-pyrrolo[3,2-c]pyridin-3-yl)ethyl]purin-6-amine]"
7,> 1500 nM,"CC(C)n1cnc2c(NCCn3c(=O)[nH]c4ccccc43)nc(-c3cncc(F)c3)nc21 [I-10, 3-[2-[[2-(5-Fluoro-3-pyridyl)-9-isopropyl-purin-6-yl]amino]ethyl]-1H-benzimidazol-2-one]"
8,< 500 nM,"Cc1[nH]c2c(F)cc(F)cc2c1CCNc1nc(-c2cncc(F)c2)nc2c1ncn2C(C)C [I-11, N-(2-(5,7-Difluoro-2-methyl-1H-indol-3-yl)ethyl)-2-(5-fluoropyridin-3-yl)-9-isopropyl-9H-purin-6-amine]"
9,> 1500 nM,"CC(C)n1cnc2c(NCCn3cnc4ccccc43)nc(-c3cncc(F)c3)nc21 [I-13, N-(2-(1H-Benzo[d]imidazol-1-yl)ethyl)-2-(5-fluoropyridin-3-yl)-9-isopropyl-9H-purin-6-amine]"
10,> 1500 nM,"CC(C)n1cnc2c(NCCc3cn(C)c4ccccc34)nc(-c3cncc(F)c3)nc21 [I-14, 2-(5-Fluoropyridin-3-yl)-9-isopropyl-N-(2-(1-methyl-1H-indol-3-yl)ethyl)-9H-purin-6-amine]"
11,< 500 nM,"CC(C)n1cnc2c(NCCc3cnc4ccccn34)nc(-c3cncc(F)c3)nc21 [I-15, 2-(5-Fluoro-3-pyridyl)-N-(2-imidazo[1,2-a]pyridin-3-ylethyl)-9-isopropyl-purin-6-amine]"
12,< 500 nM,"CC(C)Nc1cc(NCCc2c[nH]c3ccccc23)nc(-c2cncc(F)c2)n1 [I-20, 2-(5-Fluoro-3-pyridyl)-N6-[2-(1H-indol-3-yl)ethyl]-N4-isopropyl-pyrimidine-4,6-diamine]"
13,< 500 nM,"CC(C)n1cnc2c(NCCc3cn4ccccc4n3)nc(-c3cncc(F)c3)nc21 [I-22, 2-(5-Fluoro-3-pyridyl)-N-(2-imidazo[1,2-a]pyridin-2-ylethyl)-9-isopropyl-purin-6-amine]"
14,< 500 nM,"CC(C)n1cnc2c(NCCc3c[nH]c4c(F)cc(F)cc34)nc(-c3cncc(F)c3)nc21 [I-23, N-[2-(5,7-Difluoro-1H-indol-3-yl)ethyl]-2-(5-fluoro-3-pyridyl)-9-isopropyl-purin-6-amine]"
15,> 1500 nM,"O=C(c1cnn2c(N[C@@H]3CCc4[nH]c5ccccc5c4C3)cc(-c3cncc(F)c3)nc12)N1CCOCC1 [I-24, [5-(5-Fluoro-3-pyridyl)-7-[[(3R)-2,3,4,9-tetrahydro-1H-carbazol-3-yl]amino]pyrazolo[1,5-a]pyrimidin-3-yl]-morpholino-methanone]"
16,> 1500 nM,"CON(C)C(=O)c1cnn2c(N[C@@H]3CCc4[nH]c5ccccc5c4C3)cc(-c3cncc(F)c3)nc12 [I-25, 5-(5-Fluoro-3-pyridyl)-N-methoxy-N-methyl-7-[[(3R)-2,3,4,9-tetrahydro-1H-carbazol-3-yl]amino]pyrazolo[1,5-a]pyrimidine-3-carboxamide]"
17,> 1500 nM,"CC(C)c1cnn2c(N[C@@H]3CCc4[nH]c5ccccc5c4C3)cc(-c3ccccc3)nc12 [I-26, (3R)—N-(3-isopropyl-5-phenyl-pyrazolo[1,5-a]pyrimidin-7-yl)-2,3,4,9-tetrahydro-1H-carbazol-3-amine]"
18,> 1500 nM,"CC(C)c1cnn2c(NC[C@@H](C)c3ccc(O)cc3)cc(-c3cncc(F)c3)nc12 [I-28a, 4-[(1S)-2-[[5-(5-fluoro-3-pyridyl)-3-isopropyl-pyrazolo[1,5-a]pyrimidin-7-yl]amino]-1-methyl-ethyl]phenol]"
19,> 1500 nM,"CN1CCN(C(=O)c2cnn3c(N[C@@H]4CCc5[nH]c6ccccc6c5C4)cc(-c4cncc(F)c4)nc23)CC1 [I-29, [5-(5-Fluoro-3-pyridyl)-7-[[(3R)-2,3,4,9-tetrahydro-1H-carbazol-3-yl]amino]pyrazolo[1,5-a]pyrimidin-3-yl]-(4-methylpiperazin-1-yl)methanone]"
20,> 1500 nM,"CC(C)c1cnn2c(NCCc3c[nH]c4ccccc34)ccnc12 [I-31, N-[2-(1H-indol-3-yl)ethyl]-3-isopropyl-pyrazolo[1,5-a]pyrimidin-7-amine]"
21,< 500 nM,"CC(O)c1cnn2c(NCCc3c[nH]c4ccccc34)cc(-c3cncc(F)c3)nc12 (stereo not drawn) [I-33, 1-[5-(5-Fluoro-3-pyridyl)-7-[2-(1H-indol-3-yl)ethylamino]pyrazolo[1,5-a]pyrimidin-3-yl]ethanol]"
22,> 1500 nM,"Cc1cnn2c(N[C@@H]3CCc4[nH]c5ccccc5c4C3)cc(-c3cncc(F)c3)nc12 [I-34, (3R)—N-[5-(5-Fluoro-3-pyridyl)-3-methyl-pyrazolo[1,5-a]pyrimidin-7-yl]-2,3,4,9-tetrahydro-1H-carbazol-3-amine]"
23,> 1500 nM,"Fc1cncc(-c2cc(N[C@@H]3CCc4[nH]c5ccccc5c4C3)n3ncc(C(F)(F)F)c3n2)c1 [I-35, (3R)—N-[5-(5-Fluoro-3-pyridyl)-3-(trifluoromethyl)pyrazolo[1,5-a]pyrimidin-7-yl]-2,3,4,9-tetrahydro-1H-carbazol-3-amine]"
24,> 1500 nM,"CC(C)c1cnn2c(N[C@@H]3CCc4[nH]c5ccccc5c4C3)cc(-c3cncc(C#N)c3)nc12 [I-38, 5-[3-Isopropyl-7-[[(3R)-2,3,4,9-tetrahydro-1H-carbazol-3-yl]amino]pyrazolo[1,5-a]pyrimidin-5-yl]pyridine-3-carbonitrile]"
25,> 1500 nM,"Fc1cncc(-c2cc(N[C@@H]3CCc4[nH]c5ccccc5c4C3)n3nccc3n2)c1 [I-41, (3R)—N-[5-(5-Fluoro-3-pyridyl)pyrazolo[1,5-a]pyrimidin-7-yl]-2,3,4,9-tetrahydro-1H-carbazol-3-amine]"
26,500 to 1000 nM,"N#Cc1cncc(-c2cc(NCCc3c[nH]c4ccccc34)n3nccc3n2)c1 [I-43, 5-[7-[2-(1H-Indol-3-yl)ethylamino]pyrazolo[1,5-a]pyrimidin-5-yl]pyridine-3-carbonitrile]"
27,> 1500 nM,"CC(C)c1cnn2c(NC3Cc4ccccc4C3)cc(-c3cncc(F)c3)nc12 [I-44, 5-(5-Fluoro-3-pyridyl)-N-indan-2-yl-3-isopropyl-pyrazolo[1,5-a]pyrimidin-7-amine]"
28,< 500 nM,"CC(C)n1cnc2c(NC3Cc4ccc(O)cc4C3)nc(-c3cncc(F)c3)nc21 (stereo not drawn) [I-48, 2-[[2-(5-fluoro-3-pyridyl)-9-isopropyl-purin-6-yl]amino]indan-5-ol]"
29,< 500 nM,"Oc1ccc(CCNc2cc(-c3cncc(F)c3)nc3ccnn23)cc1 [I-49, 4-[2-[[5-(5-Fluoro-3-pyridyl)pyrazolo[1,5-a]pyrimidin-7-yl]amino]ethyl]phenol]"
30,> 1500 nM,"Fc1cncc(-c2cc(NC3Cc4cc5c(cc4C3)OCO5)n3nccc3n2)c1 [I-50, N-(6,7-Dihydro-5H-cyclopenta[f][1,3]benzodioxol-6-yl)-5-(5-fluoro-3-pyridyl)pyrazolo[1,5-a]pyrimidin-7-amine]"
